The record followed here is patent US7365088B2, “Indazole-derivatives as factor Xa inhibitors” (Sanofi-Aventis Deutschland GmbH, priority 2003, dated 2008).

Sequence of human factor Xa (P00742 235-488 limits assumed): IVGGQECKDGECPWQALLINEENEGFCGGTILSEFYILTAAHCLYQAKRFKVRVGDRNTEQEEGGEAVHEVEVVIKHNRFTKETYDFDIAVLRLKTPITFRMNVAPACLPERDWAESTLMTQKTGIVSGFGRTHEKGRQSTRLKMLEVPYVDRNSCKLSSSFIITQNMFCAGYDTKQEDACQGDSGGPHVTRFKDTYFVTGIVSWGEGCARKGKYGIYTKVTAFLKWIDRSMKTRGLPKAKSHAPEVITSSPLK
Sequence of human factor Xa (P00742 41-179 partner limits assumed): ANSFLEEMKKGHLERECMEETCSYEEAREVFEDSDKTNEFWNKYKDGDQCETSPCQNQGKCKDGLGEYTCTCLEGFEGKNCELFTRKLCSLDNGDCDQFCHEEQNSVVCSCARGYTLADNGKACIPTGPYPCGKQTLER

The test addresses human factor Xa (Homo sapiens, UniProt P00742). As to the kind of experiment: Factor Xa assay (chromogenic, substrate S-2765).
In general, Ki refers to a dissociation constant, usually derived from enzyme kinetics or from competition with a known ligand. With `CC(C)N1CCC(NC(=O)c2nn(Cc3cc(-c4ccc(Cl)s4)on3)c3ccc(C(=O)OCCO)cc23)CC1` [Example 29, 1-[5-(5-Chloro-thiophen-2-yl)-isoxazol-3-ylmethyl]-3-(1-isopropyl-piperidin-4-ylcarbamoyl)-1H-indazole-5-carboxylic acid 2-hydroxy-ethyl ester], the Ki is 39 nM.

`CC(C)N1CCC(NC(=O)c2nn(Cc3cc(-c4ccc(Cl)s4)on3)c3ccc(C(=O)N4CCCOCC4)cc23)CC1` [Example 30, 1-[5-(5-Chloro-thiophen-2-yl)-isoxazol-3-ylmethyl]-5-([1,4]oxazepane-4-carbonyl)-1H-indazole-3-carboxylic acid (1-isopropyl-piperidin-4-yl)-amide] came in with a Ki of 12 nM. This Ki is about 3.2-fold lower than that of the compound before.

Take `CONC(=O)c1ccc2c(c1)c(C(=O)NC1CCN(C(C)C)CC1)nn2Cc1cc(-c2ccc(Cl)s2)on1` [Example 32, 1-[5-(5-Chloro-thiophen-2-yl)-isoxazol-3-ylmethyl]-1H-indazole-3,5-dicarboxylic acid 3-[(1-isopropyl-piperidin-4-yl)-amide]5-(methoxy-amide)]: affinity was put at a Ki of 22 nM.

In the case of `O=C(Nc1ccc(C(=O)N2CCCC2)cc1)c1nn(Cc2cc(-c3ccc(Cl)s3)on2)c2ccccc12` [Example 34, 1-[5-(5-Chloro-thiophen-2-yl)-isoxazol-3-ylmethyl]-1H-indazole-3-carboxylic acid [4-(pyrrolidine-1-carbonyl)-phenyl]-amide], the affinity, expressed as Ki, was 120 nM.

`O=C(Nc1ccc(C(=O)N2CCOCC2)cc1)c1nn(Cc2cc(-c3ccc(Cl)s3)on2)c2ccccc12` [Example 35, 1-[5-(5-Chloro-thiophen-2-yl)-isoxazol-3-ylmethyl]-1H-indazole-3-carboxylic acid [4-(morpholine-4-carbonyl)-phenyl]-amide] came in with an inhibition constant (Ki) of 530 nM.

For the compound `O=C(c1nn(Cc2cc(-c3ccc(Cl)s3)on2)c2ccccc12)N1CCC(N2CCCC2=O)CC1` [Example 37, 1-(1-{1-[5-(5-Chloro-thiophen-2-yl)-isoxazol-3-ylmethyl]-1H-indazole-3-carbonyl}-piperidin-4-yl)-pyrrolidin-2-one], the affinity corresponds to a Ki of 210 nM. This Ki is about 2.5-fold lower than that of the compound before.

With `O=C(Nc1ccc(N2CCCC2=O)cc1)c1nn(Cc2cc(-c3ccc(Cl)s3)on2)c2ccccc12` [Example 39, 1-[5-(5-Chloro-thiophen-2-yl)-isoxazol-3-ylmethyl]-1H-indazole-3-carboxylic acid [4-(2-oxo-pyrrolidin-1-yl)-phenyl]-amide], the Ki is 19 nM.

In the case of `CS(=O)(=O)c1ccccc1-c1ccc(NC(=O)c2nn(Cc3cc(-c4ccc(Cl)s4)on3)c3ccccc23)cc1` [Example 41, 1-[5-(5-Chloro-thiophen-2-yl)-isoxazol-3-ylmethyl]-1H-indazole-3-carboxylic acid (2′-methanesulfonyl-biphenyl-4-yl)-amide], the Ki turned out to be 7 nM.

As for `CC1CC(=O)NN=C1c1ccc(NC(=O)c2nn(Cc3cc(-c4ccc(Cl)s4)on3)c3ccccc23)cc1` (stereo not shown) [Example 43, 1-[5-(5-Chloro-thiophen-2-yl)-isoxazol-3-ylmethyl]-1H-indazole-3-carboxylic acid [4-(4-methyl-6-oxo-1,4,5,6-tetrahydro-pyridazin-3-yl)-phenyl]-amide], the Ki worked out at 730 nM.

In turn, `O=C(Nc1ccc(-c2c[nH]cn2)cc1)c1nn(Cc2cc(-c3ccc(Cl)s3)on2)c2ccccc12` [Example 45, 1-[5-(5-Chloro-thiophen-2-yl)-isoxazol-3-ylmethyl]-1H-indazole-3-carboxylic acid [4-(1H-imidazol-4-yl)-phenyl]-amide] displayed a Ki of 180 nM.

Take `COC(=O)c1ccc2c(c1)c(C(=O)Nc1ccc(N3CCOCC3=O)cc1)nn2Cc1cc(-c2ccc(Cl)s2)on1` [Example 47, 1-[5-(5-Chloro-thiophen-2-yl)-isoxazol-3-ylmethyl]-3-[4-(3-oxo-morpholin-4-yl)-phenylcarbamoyl]-1H-indazole-5-carboxylic acid methyl ester]: the affinity, expressed as Ki, was 9 nM.

For the compound `Cc1oc(=O)oc1COC(=O)c1ccc2c(c1)c(C(=O)NC1CCN(C(C)C)CC1)nn2Cc1cc(-c2ccc(Cl)s2)on1` [Example 50, 1-[5-(5-Chloro-thiophen-2-yl)-isoxazol-3-ylmethyl]-3-(1-isopropyl-piperidin-4-ylcarbamoyl)-1H-indazole-5-carboxylic acid 5-methyl-2-oxo-[1,3]dioxol-4-ylmethyl ester], the Ki was determined as 41 nM.

In the case of `CC(C)N1CCC(NC(=O)c2nn(Cc3cc(-c4ccc(Cl)s4)on3)c3ccc(C(=O)N4CC(C(=O)O)C4)cc23)CC1` [Example 52, 1-[1-[5-(5-Chloro-thiophen-2-yl)-isoxazol-3-ylmethyl]-3-(1-isopropyl-piperidin-4-ylcarbamoyl)-1H-indazole-5-carbonyl]-azetidine-3-carboxylic acid], the Ki worked out at 10 nM.

Turning to `O=C(Cn1nc(C(=O)Nc2ccc(N3CCOCC3=O)cc2)c2ccccc21)Nc1ccc(Cl)cn1` [Example 53, 1-[(5-Chloro-pyridin-2-ylcarbamoyl)-methyl]-1H-indazole-3-carboxylic acid [4-(3-oxo-morpholin-4-yl)-phenyl]-amide], the Ki was determined as 240 nM.

`O=C(Nc1ccc(-n2ccc(=O)cc2)cc1)c1nn(Cc2cc(-c3ccc(Cl)s3)on2)c2ccccc12` [Example 54, 1-[5-(5-Chloro-thiophen-2-yl)-isoxazol-3-ylmethyl]-1H-indazole-3-carboxylic acid [4-(4-oxo-4H-pyridin-1-yl)-phenyl]-amide] yielded a Ki of 52 nM.

The compound `COCCOC(=O)c1ccc2c(c1)c(C(=O)NC1CCN(C(C)C)CC1)nn2Cc1cc(-c2ccc(Cl)s2)on1` [Example 56, 1-[5-(5-Chloro-thiophen-2-yl)-isoxazol-3-ylmethyl]-3-(1-isopropyl-piperidin-4-ylcarbamoyl)-1H-indazole-5-carboxylic acid 2-methoxy-ethyl ester] registered a Ki of 43 nM.
